In the kinase profiling compilation of Christmann-Franck et al. (2016):

Legend:
Test in all cases: radiometric filter-binding kinase assay
[1] = tested on: AKT1 (human), P31749 [S473D]; conditions: compound 10.0 µM
[2] = molecular target: BRSK2 (human) (UniProt Q8IWQ3); conditions: compound 10.0 µM
[3] = molecular target: CLK2 (human) (UniProt P49760); conditions: compound 10.0 µM
[4] = molecular target: CSNK2A1 (human) (UniProt P68400); conditions: compound 10.0 µM
[5] = molecular target: DAPK1 (human) (UniProt P53355); conditions: compound 10.0 µM
[6] = molecular target: DYRK1A (human) (UniProt Q13627); conditions: compound 10.0 µM
[7] = molecular target: DYRK3 (human) (UniProt O43781); conditions: compound 10.0 µM
[8] = molecular target: EPHB3 (human) (UniProt P54753); conditions: compound 10.0 µM
[9] = molecular target: IKBKB (human) (UniProt O14920); conditions: compound 10.0 µM
[10] = molecular target: IKBKE (human) (UniProt Q14164); conditions: compound 10.0 µM
[11] = molecular target: IRAK4 (human) (UniProt Q9NWZ3); conditions: compound 10.0 µM
[12] = molecular target: MAP2K6 (human) (UniProt P52564); conditions: compound 10.0 µM
[13] = molecular target: MAP3K11 (human) (UniProt Q16584); conditions: compound 10.0 µM
Sequence of MAP3K11 (human) (Q16584 whole entry, looked up): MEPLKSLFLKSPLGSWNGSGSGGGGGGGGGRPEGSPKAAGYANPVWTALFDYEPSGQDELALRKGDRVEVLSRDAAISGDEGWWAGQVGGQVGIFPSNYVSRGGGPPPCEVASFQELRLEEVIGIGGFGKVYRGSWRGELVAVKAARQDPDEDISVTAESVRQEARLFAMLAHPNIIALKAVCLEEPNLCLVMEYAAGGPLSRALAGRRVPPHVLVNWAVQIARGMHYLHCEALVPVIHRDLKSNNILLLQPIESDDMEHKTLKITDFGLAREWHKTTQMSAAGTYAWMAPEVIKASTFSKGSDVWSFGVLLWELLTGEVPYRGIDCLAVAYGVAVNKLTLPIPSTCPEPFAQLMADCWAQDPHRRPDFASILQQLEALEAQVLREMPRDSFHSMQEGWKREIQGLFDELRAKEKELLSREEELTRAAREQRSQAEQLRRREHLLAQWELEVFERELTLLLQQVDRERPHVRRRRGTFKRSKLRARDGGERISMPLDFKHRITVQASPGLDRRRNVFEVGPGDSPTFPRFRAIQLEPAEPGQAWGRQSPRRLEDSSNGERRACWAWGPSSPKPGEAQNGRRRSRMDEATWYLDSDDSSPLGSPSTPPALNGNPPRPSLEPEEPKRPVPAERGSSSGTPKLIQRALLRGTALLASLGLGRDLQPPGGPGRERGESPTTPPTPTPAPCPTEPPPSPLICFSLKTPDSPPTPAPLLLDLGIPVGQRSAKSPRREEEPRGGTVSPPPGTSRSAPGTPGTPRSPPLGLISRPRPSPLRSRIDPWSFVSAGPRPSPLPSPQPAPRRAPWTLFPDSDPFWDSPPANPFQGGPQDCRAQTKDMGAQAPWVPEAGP

[14] = molecular target: MAP3K7 TAB1 (human) (UniProt Q15750+O43318); conditions: compound 10.0 µM
[15] = molecular target: MAPK11 (human) (UniProt Q15759); conditions: compound 10.0 µM
[16] = molecular target: MAPK12 (human) (UniProt P53778); conditions: compound 10.0 µM
[17] = molecular target: MAPK14 (human) (UniProt Q16539); conditions: compound 10.0 µM
Sequence of MAPK14 (human) (Q16539 whole entry, looked up): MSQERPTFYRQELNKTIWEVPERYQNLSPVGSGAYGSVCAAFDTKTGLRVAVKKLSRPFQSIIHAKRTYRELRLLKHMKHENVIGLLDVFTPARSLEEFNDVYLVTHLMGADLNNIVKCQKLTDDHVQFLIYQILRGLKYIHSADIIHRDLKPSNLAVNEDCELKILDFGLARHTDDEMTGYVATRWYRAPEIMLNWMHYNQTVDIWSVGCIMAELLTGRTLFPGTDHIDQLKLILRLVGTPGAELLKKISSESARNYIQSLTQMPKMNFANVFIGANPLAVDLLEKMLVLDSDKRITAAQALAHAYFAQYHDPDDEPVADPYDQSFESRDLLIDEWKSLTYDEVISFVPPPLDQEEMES

[18] = molecular target: MAPK3 (human) (UniProt P27361); conditions: compound 10.0 µM
Sequence of MAPK3 (human) (P27361 whole entry, looked up): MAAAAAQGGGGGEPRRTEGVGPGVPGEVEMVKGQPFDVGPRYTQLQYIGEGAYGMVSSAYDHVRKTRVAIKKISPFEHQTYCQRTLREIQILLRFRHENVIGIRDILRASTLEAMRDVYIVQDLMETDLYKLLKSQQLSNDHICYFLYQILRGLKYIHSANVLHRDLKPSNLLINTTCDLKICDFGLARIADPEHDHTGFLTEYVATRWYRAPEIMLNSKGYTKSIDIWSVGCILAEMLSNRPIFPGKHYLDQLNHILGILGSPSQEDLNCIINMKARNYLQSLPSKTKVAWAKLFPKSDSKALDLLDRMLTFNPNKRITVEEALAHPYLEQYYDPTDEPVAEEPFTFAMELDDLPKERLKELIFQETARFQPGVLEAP

[19] = molecular target: MAPK8 (human) (UniProt P45983); conditions: compound 10.0 µM
Sequence of MAPK8 (human) (P45983 whole entry, looked up): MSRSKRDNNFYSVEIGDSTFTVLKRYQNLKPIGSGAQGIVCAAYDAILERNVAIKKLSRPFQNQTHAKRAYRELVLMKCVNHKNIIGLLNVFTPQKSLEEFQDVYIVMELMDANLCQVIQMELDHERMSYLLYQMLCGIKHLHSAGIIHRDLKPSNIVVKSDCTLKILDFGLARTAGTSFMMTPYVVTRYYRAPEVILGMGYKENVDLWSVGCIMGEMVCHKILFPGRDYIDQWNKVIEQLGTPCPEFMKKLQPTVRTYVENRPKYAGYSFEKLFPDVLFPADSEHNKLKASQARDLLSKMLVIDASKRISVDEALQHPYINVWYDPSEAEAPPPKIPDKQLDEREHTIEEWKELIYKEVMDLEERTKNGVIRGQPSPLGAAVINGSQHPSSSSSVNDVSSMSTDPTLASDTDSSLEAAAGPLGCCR

[20] = molecular target: MAPKAPK3 (human) (UniProt Q16644); conditions: compound 10.0 µM
Sequence of MAPKAPK3 (human) (Q16644 whole entry, looked up): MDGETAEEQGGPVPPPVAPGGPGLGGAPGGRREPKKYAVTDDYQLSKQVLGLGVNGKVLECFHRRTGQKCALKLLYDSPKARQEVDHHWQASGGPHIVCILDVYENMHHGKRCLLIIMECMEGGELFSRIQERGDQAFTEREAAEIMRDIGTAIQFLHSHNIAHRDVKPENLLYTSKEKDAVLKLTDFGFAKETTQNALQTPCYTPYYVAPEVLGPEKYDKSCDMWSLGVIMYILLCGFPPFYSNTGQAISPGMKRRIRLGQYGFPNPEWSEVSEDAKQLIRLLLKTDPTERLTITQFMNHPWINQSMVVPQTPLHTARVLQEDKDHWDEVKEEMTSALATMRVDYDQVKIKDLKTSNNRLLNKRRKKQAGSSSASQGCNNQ

[21] = molecular target: MAPKAPK5 (human) (UniProt Q8IW41); conditions: compound 10.0 µM
[22] = molecular target: MKNK2 (human) (UniProt Q9HBH9); conditions: compound 10.0 µM
[23] = molecular target: NTRK1 (human) (UniProt P04629); conditions: compound 10.0 µM
Sequence of NTRK1 (human) (P04629 whole entry, looked up): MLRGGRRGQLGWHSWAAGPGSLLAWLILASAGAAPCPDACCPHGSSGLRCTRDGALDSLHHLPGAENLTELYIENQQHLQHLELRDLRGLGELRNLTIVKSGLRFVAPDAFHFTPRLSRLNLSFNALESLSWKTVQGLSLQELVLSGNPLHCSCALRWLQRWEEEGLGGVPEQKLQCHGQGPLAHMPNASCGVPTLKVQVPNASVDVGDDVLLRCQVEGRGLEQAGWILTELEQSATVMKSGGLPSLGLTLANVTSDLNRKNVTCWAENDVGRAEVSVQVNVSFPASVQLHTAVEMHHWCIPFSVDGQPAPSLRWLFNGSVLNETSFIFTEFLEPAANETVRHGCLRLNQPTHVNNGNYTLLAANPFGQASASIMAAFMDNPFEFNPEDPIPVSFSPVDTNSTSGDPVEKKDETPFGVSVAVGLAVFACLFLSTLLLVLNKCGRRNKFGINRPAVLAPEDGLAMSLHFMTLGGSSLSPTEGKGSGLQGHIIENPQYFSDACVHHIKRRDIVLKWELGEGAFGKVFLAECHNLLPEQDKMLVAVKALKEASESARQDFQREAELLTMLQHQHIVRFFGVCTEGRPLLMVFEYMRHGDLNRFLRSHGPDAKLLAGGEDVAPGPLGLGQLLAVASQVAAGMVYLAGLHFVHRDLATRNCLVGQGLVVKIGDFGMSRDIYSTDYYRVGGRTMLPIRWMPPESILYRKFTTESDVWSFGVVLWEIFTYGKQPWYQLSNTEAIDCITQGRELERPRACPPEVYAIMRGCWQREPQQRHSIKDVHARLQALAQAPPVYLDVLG

[24] = molecular target: PAK4 (human) (UniProt O96013); conditions: compound 10.0 µM
[25] = molecular target: PIM1 (human) (UniProt P11309); conditions: compound 10.0 µM
Sequence of PIM1 (human) (P11309 whole entry, looked up): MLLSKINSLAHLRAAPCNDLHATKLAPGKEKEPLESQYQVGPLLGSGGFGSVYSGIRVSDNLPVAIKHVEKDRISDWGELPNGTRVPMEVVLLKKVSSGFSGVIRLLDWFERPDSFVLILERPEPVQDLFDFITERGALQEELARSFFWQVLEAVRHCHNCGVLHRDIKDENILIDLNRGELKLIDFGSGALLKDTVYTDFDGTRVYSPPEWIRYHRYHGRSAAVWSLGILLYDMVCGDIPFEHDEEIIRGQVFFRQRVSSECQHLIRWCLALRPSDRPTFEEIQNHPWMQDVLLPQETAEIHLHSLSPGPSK

[26] = molecular target: PIM2 (human) (UniProt Q9P1W9); conditions: compound 10.0 µM
Sequence of PIM2 (human) (Q9P1W9 whole entry, looked up): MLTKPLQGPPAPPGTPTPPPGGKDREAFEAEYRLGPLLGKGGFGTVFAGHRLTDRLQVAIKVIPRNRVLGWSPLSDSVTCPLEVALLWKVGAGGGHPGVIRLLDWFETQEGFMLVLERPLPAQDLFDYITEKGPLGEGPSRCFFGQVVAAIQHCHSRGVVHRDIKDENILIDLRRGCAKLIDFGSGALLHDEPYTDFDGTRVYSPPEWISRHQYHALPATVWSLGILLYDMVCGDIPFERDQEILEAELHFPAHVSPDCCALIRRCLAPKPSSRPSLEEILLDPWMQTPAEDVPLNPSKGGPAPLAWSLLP

[27] = molecular target: PIM3 (human) (UniProt Q86V86); conditions: compound 10.0 µM
[28] = molecular target: PLK1 (human) (UniProt P53350); conditions: compound 10.0 µM
[29] = tested on: ROCK2 (rat); conditions: compound 10.0 µM; accession and sequence are those of the human protein
[30] = molecular target: RPS6KA1 KD1 KD2 (human) (UniProt Q15418); conditions: compound 10.0 µM
[31] = molecular target: RPS6KA3 KD1 KD2 (human) (UniProt P51812); conditions: compound 10.0 µM
[32] = tested on: RPS6KB1 (human), P23443 [T412E]; conditions: compound 10.0 µM
[33] = tested on: SGK1 (human), O00141 [S422D]; conditions: compound 10.0 µM
[34] = molecular target: STK3 (human) (UniProt Q13188); conditions: compound 10.0 µM
[35] = molecular target: TBK1 (human) (UniProt Q9UHD2); conditions: compound 10.0 µM

Sequence of CLK2 (human) (P49760 whole entry, looked up): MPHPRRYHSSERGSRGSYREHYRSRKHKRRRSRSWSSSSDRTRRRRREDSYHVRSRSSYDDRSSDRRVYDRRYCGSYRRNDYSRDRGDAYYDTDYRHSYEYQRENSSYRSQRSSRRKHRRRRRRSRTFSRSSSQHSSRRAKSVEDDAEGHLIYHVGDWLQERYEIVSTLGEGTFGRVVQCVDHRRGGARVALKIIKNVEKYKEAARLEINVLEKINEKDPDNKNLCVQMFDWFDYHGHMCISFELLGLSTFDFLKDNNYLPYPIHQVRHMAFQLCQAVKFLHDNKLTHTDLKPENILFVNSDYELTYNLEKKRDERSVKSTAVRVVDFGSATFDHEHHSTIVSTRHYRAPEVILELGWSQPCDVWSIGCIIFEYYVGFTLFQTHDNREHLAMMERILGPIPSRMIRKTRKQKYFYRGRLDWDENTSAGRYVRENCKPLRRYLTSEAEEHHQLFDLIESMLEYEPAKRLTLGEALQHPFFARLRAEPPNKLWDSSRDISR
Sequence of CSNK2A1 (human) (P68400 whole entry, looked up): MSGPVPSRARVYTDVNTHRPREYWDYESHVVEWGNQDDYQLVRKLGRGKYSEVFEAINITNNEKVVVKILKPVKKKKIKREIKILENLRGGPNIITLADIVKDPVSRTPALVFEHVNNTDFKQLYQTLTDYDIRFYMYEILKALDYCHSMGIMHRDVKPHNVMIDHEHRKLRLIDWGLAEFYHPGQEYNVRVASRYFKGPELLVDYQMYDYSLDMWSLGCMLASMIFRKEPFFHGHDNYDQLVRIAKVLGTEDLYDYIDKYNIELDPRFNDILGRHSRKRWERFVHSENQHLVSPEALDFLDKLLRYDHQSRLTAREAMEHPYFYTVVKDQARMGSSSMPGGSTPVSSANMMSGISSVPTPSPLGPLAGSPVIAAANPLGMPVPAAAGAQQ

In the case of `CCOC(=O)c1ccc(N2NC(=O)/C(=C/c3ccc([N+](=O)[O-])o3)C2=O)cc1`, the residual activity [1] is reported as 79%, the residual activity [2] is reported as 42% and the residual activity [3] is reported as 126%. For the same molecule, the residual activity [4] was 106%, the residual activity [5] was 112% and the residual activity [6] was 70%. For the same molecule, the residual activity [7] was 55%, the residual activity [8] was 100% and the residual activity [9] was 108%. The residual activity [10] was 156%, the residual activity [11] was 112% and the residual activity [12] was 87%. For the same molecule, the residual activity [13] was 100%, the residual activity [14] was 102% and the residual activity [15] was 113%. The residual activity [16] was 112%, the residual activity [17] was 105% and the residual activity [18] was 103%. The residual activity [19] was 117%, the residual activity [20] was 41% and the residual activity [21] was 97%. It also gave a residual activity [22] of 89%, a residual activity [23] of 104% and a residual activity [24] of 55%. For the same molecule, the residual activity [25] was 109%, the residual activity [26] was 107% and the residual activity [27] was 92%. The residual activity [28] was 92%, the residual activity [29] was 91% and the residual activity [30] was 92%. It also gave a residual activity [31] of 37%, a residual activity [32] of 120% and a residual activity [33] of 126%. For the same molecule, the residual activity [34] was 122% and the residual activity [35] was 100%.
